The numbers were not newly measured in article PMC6720825, “Thiol-ene "Click" Synthesis and Pharmacological Evaluation of C-Glycoside sp^2-Iminosugar Glycolipids” (Molecules, 2019), which cites them from elsewhere.

The test system of one data set is T-47D, breast. Also on record: method as in doi:10.1039/C5RA02627J. To be noted: Figure 1; cited from earlier work.
The test system of data set [1] is intracellular amastigotes of Leishmania donovani (amastigotes HU3). Further details: method as in doi:10.1039/C5RA02627J. To be noted: intracellular amastigotes of Leishmania donovani; cited from earlier work.

Take `CCCCCCCCCCCCS[C@@H]1[C@H](O)[C@@H](O)[C@@H](O)[C@H]2COC(=O)N21` [DS-OGJ]: in the data set with T-47D, breast, the GI50 (in general, the concentration at which growth is held to half of that of the control) is 18 µM. In addition, the EC50 (as a rule, the concentration needed to bring the measured effect to its halfway point) in data set [1] was 15.5 µM.
